A melting point compilation (Tetko et al.)

melting point | SMILES
179 to 181 °C | CCOC1CCN(C(=O)Nc2cccc(C(=O)O)c2)CC1
198 to 200 °C | COc1ccc(-c2cc(C(=O)O)nn2-c2ccccc2)cc1
108 to 110 °C | O=C(NCc1ccc2c(c1)OCO2)n1ccnc1
208 to 210 °C | Nc1ccc(-c2cncnc2)cc1
59 to 61 °C | Cc1ccccc1CCNC(=O)C(C)Cl (configuration not stated)
129 to 131 °C | Cc1cc(F)ccc1-n1cc(C(=O)O)nn1
179 to 181 °C | Nc1c(-c2cccnc2)nc2ccccn12
178 to 180 °C | CCc1ccc2cc(C(=O)O)[nH]c2c1
88 to 90 °C | N#CCCCOc1cccnc1N
160 to 162 °C | Clc1nc(-c2ccccn2)nc2scc(-c3ccccc3)c12
178 to 180 °C | CCCOc1ccc2c(c1)OCC(C(=O)O)=C2
100 to 102 °C | Cc1ccc(C)n1-c1nc(CC(=O)O)cs1
77 to 79 °C | CC(CCNC(N)=O)c1ccccc1 (configuration not stated)
107 to 109 °C | CC(C(=O)O)=C1CCCC1
86 to 88 °C | CN(C(=O)CC#N)c1ccccc1
143 to 145 °C | Cc1cc(C(=O)CCl)c(C)n1CC(F)(F)F
78 to 80 °C | CN(C)S(=O)(=O)Nc1ccccc1Br
104 to 106 °C | N#CCc1ccnc(N)c1
53 to 55 °C | CCOC(=O)c1nnc2ccccc2c1Cl
163 to 165 °C | O=C(O)c1c(C2CC2)nc2sccn12
109 to 111 °C | Cc1noc(C)c1CCC(=O)O
144 to 146 °C | CC(C)n1ncc2c(C(=O)O)cc(C3CC3)nc21
167 to 169 °C | O=C(O)c1nn(-c2ccc(F)cc2)c2c1CCCCC2

melting point | SMILES
121 to 123 °C | Cc1nn(-c2ccc(Cl)cc2)cc1C=O
111 to 113 °C | Cc1ccccc1C(=O)NC(CC(C)C)C(=O)O (configuration not stated)
111 to 113 °C | CCN1C(=C2C=NN(C)C2=N)Nc2ccccc21
77 to 79 °C | CSc1cnn(-c2ccccc2)c1N
179 to 181 °C | COc1ccsc1C(=O)O
184 to 186 °C | O=C(O)CCC(=O)c1ccc2ccc3cccc4ccc1c2c34
97 to 99 °C | NS(=O)(=O)CC1CCC1
39 to 41 °C | CC(O)Cc1cc(F)cc(Br)c1 (configuration not stated)
153 to 155 °C | CC(C)(C)c1ccc(NC(N)=S)cc1
173 to 175 °C | O=C1CC2(Cc3ccccc3C2)C(=O)N1
112 to 114 °C | N#Cc1ccc(Oc2cccc(N)c2)nc1
43 to 45 °C | CCOc1c(F)cccc1C(=O)O
179 to 181 °C | Nc1n[nH]c(Cc2cccc(F)c2)n1
199 to 201 °C | Nc1cc(C(F)(F)F)cc2c1OCC(=O)N2
48 to 50 °C | CCCN1Cc2ccc(N)cc2C1
111 to 113 °C | O=C(O)c1cnc2ccccc2c1SC1CCCC1
251 to 253 °C | Sc1nnc(-c2c[nH]c3ccccc23)n1CC1CCCO1 (configuration not stated)
214 to 216 °C | O=C(O)C1CCCN(c2ncnc3sccc23)C1 (configuration not stated)
219 to 221 °C | O=C(CCl)NC(Cc1ccccc1)c1ccccc1 (configuration not stated)
116 to 118 °C | CCOc1c(Cl)cc(C(=O)O)cc1OC
184 to 186 °C | CCN(CC)c1ccc([N+](=O)[O-])cc1C(=O)O
206 to 208 °C | O=C(O)C(CO)NS(=O)(=O)c1ccc(Cl)cc1 (configuration not stated)
154 to 156 °C | CC(NC(=O)OCc1ccccc1)C(=O)N1CCNC(=O)C1 (configuration not stated)

melting point | SMILES
75 to 77 °C | CC(=O)CC(=O)Nc1ccccc1F
195 to 197 °C | NCCNc1cn[nH]c(=O)c1Cl
120 to 122 °C | COCCNc1nnc(S)s1
206 to 208 °C | Cc1oc(C(=O)O)cc1C(=O)CCl
113 to 115 °C | Nc1ccc(S(=O)(=O)Nc2cccc(C(F)(F)F)c2)cc1
282 to 284 °C | O=C(O)c1nc2[nH]c(-c3ccccc3)cc(=O)n2n1
133 to 135 °C | Nc1ccccc1C(=O)Nc1cccc(C(F)(F)F)c1
259 to 261 °C | Nc1c([N+](=O)[O-])c(=O)oc2ccccc12
118 to 120 °C | Nc1cccc(-n2ccnn2)c1
168 to 170 °C | CNS(=O)(=O)C1CCNCC1
170 to 172 °C | CN(C)C(=O)Sc1cnc2c(c1)c(=O)n(C)c(=O)n2C
89 to 91 °C | Cc1c(Br)cccc1CO
58 to 60 °C | Cn1ccnc1C(N)c1ccccc1F (configuration not stated)
132 to 134 °C | O=C(O)CCNC(=O)CCC(=O)O
153 to 155 °C | Cc1cccn2cc(CC(N)=S)nc12
83 to 85 °C | CNC(=O)c1ccccc1O
131 to 133 °C | Cc1cc(Cl)c(O)cc1OCC(=O)O
61 to 63 °C | O=Cc1cc(Br)ccc1OCc1ccccc1
147 to 149 °C | O=C1CCCC(N2C(=O)c3ccccc3C2=O)C1 (configuration not stated)
70 to 72 °C | Nc1ccc(Oc2ccc(Cl)cn2)cc1
105 to 107 °C | Nc1ccc(Oc2ccc(Cl)nn2)cc1
107 to 109 °C | O=C(CCl)NCc1ccc(Cl)cc1
69 to 71 °C | CNc1ccc2ccccc2n1

melting point | SMILES
72 to 74 °C | O=C1CC(c2ccccc2)C(=O)N1 (configuration not stated)
93 to 95 °C | CS(=O)(=O)Nc1cccc(O)c1
186 to 188 °C | CC(C)CC(=O)NC(C(=O)O)C(C)C (configuration not stated)
77 to 79 °C | CC(C)N1C(=O)C(=O)c2ccccc21
130 to 132 °C | COc1cc(C=O)ccc1OCCC(=O)O
231 to 233 °C | CNC(=O)c1c(Cl)ccc(S(=O)(=O)NC)c1Cl
64 to 66 °C | O=[N+]([O-])c1ccccc1CSc1ccc(C(F)(F)F)cn1
116 to 118 °C | NS(=O)(=O)c1ccccc1-c1ccccc1
29 to 31 °C | CC1(C)CC(=O)OC1=O
140 to 142 °C | O=C(O)CCc1nc2sc3c(c2c(=O)[nH]1)CCCC3
63 to 65 °C | CCCC(=O)N1CCCCC1C(=O)O (configuration not stated)
93 to 95 °C | COCCc1noc(-c2cc(Cl)ccc2N)n1
137 to 139 °C | NC(=NO)c1ccccc1CN1CCC(O)CC1
136 to 138 °C | O=Cc1ccc(-c2ccc([N+](=O)[O-])cc2Cl)o1
144 to 146 °C | Nc1cc(C2CC2)nn1-c1ncccn1
189 to 191 °C | CCSc1ccc([N+](=O)[O-])cc1C(=O)O
95 to 97 °C | CCC1(c2ccc(F)cc2)NC(=O)NC1=O (configuration not stated)
189 to 191 °C | COc1ccc2c(c1)NC(=O)C2O (configuration not stated)
204 to 206 °C | Cc1ccc(S(=O)(=O)Oc2ncnc3c(F)cc(Br)cc23)cc1
97 to 99 °C | Cc1ccc(S(=O)(=O)Cl)c([N+](=O)[O-])c1
66 to 68 °C | COc1cc(C=O)ccc1OCC(F)(F)F
49 to 51 °C | CC(Cc1ccc(Cl)cc1)C(=O)O (configuration not stated)
54 to 56 °C | CCOC(=O)COc1ccc(C#N)cc1

melting point | SMILES
225 to 227 °C | O=C(O)c1ccccc1NS(=O)(=O)c1ccc(Br)cc1
124 to 126 °C | O=C1CCc2c(Cl)cc(Br)cc21
55 to 57 °C | Cc1cc(C)c(N=C=S)c(Cl)c1
112 to 114 °C | Nc1ccccc1CN1CCC(O)CC1
283 to 285 °C | Nc1nnc(-c2cnn(-c3ccccc3)c2)o1
218 to 220 °C | Cc1nc(S)n(C2CCCCC2)c1C
85 to 87 °C | Nc1cccc(N2CCCS2(=O)=O)c1
43 to 45 °C | OCc1ccnc(-c2ccccc2)n1
250 to 252 °C | Cc1c[nH]c(=O)n1-c1ccc(F)c(F)c1
145 to 148 °C | CC(C)CN1C(=O)NC(=O)C1=O
193 to 195 °C | O=C(O)CCSCc1nc2ccccc2c(=O)[nH]1
101 to 103 °C | CC(C)(C)NS(=O)(=O)Cc1cccc(N)c1
133 to 135 °C | O=C(CCl)c1ccc2c(c1)-c1ccccc1C2
120 to 122 °C | Cc1sc(N)c(C(=O)O)c1C
239 to 241 °C | CCNc1ccc(C(=O)O)cc1[N+](=O)[O-]
146 to 148 °C | O=C(O)CCNS(=O)(=O)c1cccc(Br)c1
173 to 175 °C | N#Cc1cc(Cl)nc2ccc([N+](=O)[O-])cc12
269 to 271 °C | Cc1cc(=O)[nH]c(-c2ccnc(Cl)c2)n1
184 to 186 °C | O=C(O)COc1ccc(C(F)(F)F)cc1
136 to 138 °C | CC(C)CC1CC(=O)NC(=O)C1
126 to 128 °C | CC(C)(C)OC(=O)NC1CCCC(C(=O)O)C1 (configuration not stated)
133 to 135 °C | Cc1sc2[nH]c(-c3ccc(Cl)nc3)nc(=N)c2c1C
167 to 169 °C | Cc1cc(N2CC(C(=O)O)CC2=O)ccc1Br (configuration not stated)

melting point | SMILES
161 to 163 °C | CC(=O)Oc1ccc(C(=O)Nc2ccccc2)cc1
134 to 136 °C | Cc1nc2scc(-c3ccccc3)c2c(=O)n1N
64 to 66 °C | Cc1ncc(C=O)n1-c1ccccc1
152 to 154 °C | O=C(Nc1cccc(N2CCOC2=O)c1)OCC(F)(F)F
140 to 142 °C | Cn1[nH]c(-c2ccco2)c(-c2ccc3c(c2)OCO3)c1=N
156 to 158 °C | Nc1cnccc1O
198 to 200 °C | Nc1cccc(S(=O)(=O)Nc2ccccc2C(=O)O)c1
164 to 166 °C | NNC(=O)Nc1ccc2c(c1)OCO2
228 to 230 °C | Cc1ccc(S(=O)(=O)N(C)CC(=O)O)cc1
268 to 270 °C | Nc1nc2ncccc2[nH]1
94 to 96 °C | CS(=O)(=O)c1cccc(C(N)c2ccc(Cl)cc2)c1 (configuration not stated)
104 to 106 °C | COC(=O)c1ccc2c(Cl)ncnc2c1
339 to 341 °C | CCOC(=O)c1c[nH]c2cc(F)c(F)c(F)c2c1=O
136 to 138 °C | O=C(CCl)c1ccc(CC(=O)N2CCOCC2)s1
102 to 104 °C | Cc1ccccc1Cc1cnc(N)s1
174 to 176 °C | Nc1nnc(C(F)F)s1
134 to 136 °C | COC(=O)N1CCCNC(=O)C1
62 to 64 °C | CCNC(=O)NC(=O)CN(C)Cc1ccccc1
139 to 141 °C | O=[N+]([O-])c1ccc(Cl)nc1O
121 to 123 °C | Nc1nc(C(F)(F)F)c[nH]1
118 to 120 °C | O=C(CCl)N1CCc2ccccc21
118 to 120 °C | Cc1ccnc(-c2ccc(N)cc2)n1
154 to 156 °C | CC(C(=O)NC1CCC(C(=O)O)CC1)n1cccn1 (configuration not stated)

SMILES | melting point
O=C(Nc1ccccc1F)Nc1cccc2c1CCNC2 | 157 to 159 °C
COCCn1cc(C(=O)O)c2ccccc21 | 123 to 125 °C
CC(C)(C)n1ncc(Cl)c(Cl)c1=O | 64 to 66 °C
CC(=O)CCc1ccc2c(c1)OCO2 | 50 to 52 °C
